According to patent US9351983B2, “Use of glycerophosphoinositols for the treatment of septic shock” (CONSIGLIO NAZIONALE DELLE RICERCHE, priority 2012, dated 2016):

Tested on: LPS-activated tissue-factor (TF) activity in human monocytes
Test: Pro-coagulant activity of tissue factor (one-stage clotting time) in LPS-stimulated human monocytes
Assay type: cell-based
Experimental: FIG. 2—The glycerophosphoinositols inhibit LPS-activated tissue-factor activity in human monocytes. Human monocytes were purified from peripheral blood of healthy donors and incubated at 37° C. for 20 min without or with different concentrations (from 50 μM to 300 μM) GroPIns or GroPIns4P, and for a further 5 h and 24 h in the absence and in presence of 0.1 μg/ml LPS from E. coli. […] Data are means (±SD) of three independent experiments performed with cells from different donors. Asterisks indicate statistically significant differences (*p=0.015; **p<0.005; ***p=0.0003) versus their respective controls. As shown, pro-coagulant activity was not detectable in untreated monocytes, and it was induced in a time-dependent manner by LPS stimulation.
The glycerophosphoinositol, differently from the PLA2IVα inhibitor, inhibits LPS-activated tissue-factor activity in human monocytes. Human monocytes were purified from peripheral blood of two healthy donors (experiment I and II) and pre-incubated at 37° C. for 20 min without (black line) or with 300 μM glycerophosphoinositol (GroPIns, blue line) or 0.5 μM PLA2IVα inhibitor (pyrrophenone, Pf, red line), and for a further 24 h in the absence or presence of increasing concentrations of LPS from E. coli (endotoxin).
The glycerophosphoinositol inhibits in a dose-dependent manner LPS-activated tissue-factor activity in human monocytes. Human monocytes were purified from peripheral blood of three healthy donors (experiments III, IV and V) and pre-incubated at 37° C. for 20 min without or with increasing concentrations of glycerophosphoinositol (GroPIns) and for a further 24 h in the absence or presence of 10 ng/ml of LPS from E. coli (endotoxin). […] The two insets in Exp IV and V show the pro-coagulant activity of tissue factor, assessed in cells stimulated by 10 ng/ml of endotoxin, with (filled bars) or without (dotted bars) 20 min pre-incubation at 37° C., in absence (Control) or in presence of 300 μM GroPIns.
The glycerophosphoinositols inhibit LPS-activated tissue-factor activity in human monocytes.
Human monocytes were obtained from whole blood collected from healthy donors (informed consent was obtained) and anticoagulated with 0.1 vol 3.8% sodium citrate/0.15 mol/l NaCl. The leukocytes were sedimented at 180×g for 15 min at 10° C. The sedimented cells were diluted to the initial volume with citrate-saline and sedimented again. This step was repeated to minimise platelet contamination. The cells were then layered onto Lymphoprep™, and centrifuged at 700×g for 20 min at 20° C. The ring of mononuclear cells was collected and sedimented at 620×g for 7 min at 8° C. The pellet was resuspended in citrate-saline and the cells were washed twice. Monocytes were purified using a discontinuous Percoll™ density gradient; the mononuclear cell preparation was resuspended in RPMI-1640 medium supplemented with 10% heat-inactivated foetal calf serum, and was layered onto a 46% isosmotic Percoll™ solution. After centrifugation at 20° C. for 30 min at 550×g, the cells at the RPMI-1640 medium/Percoll™ interface were collected and sedimented at 620×g. The pellet was resuspended in citrate-saline and the cells were washed twice. The final monocyte preparation was then resuspended in serum-free RPMI-1640 at the concentration required.
The pro-coagulant activity of tissue factor (TF activity) was measured in cell lysates according to one-stage clotting time [as reported in (Evangelista et al., Thromb Haemost. 2005; 94, 568-577)]. One hundred μl of cell lysates were added to 100 μl of 37° C. prewarmed normal human plasma. After 30 s, 100 μl 20 mM CaCl2 were added to the mixture and the clotting time was determined using a KC4A Amellung Coagulometer (Mascia Brunelli, Milan, Italy). The data were then converted in arbitrary units by interpolation with a standard curve generated with serial dilutions of human recombinant thromboplastin (Hemoliance, Instrumentation Laboratory).

[1] = 300 μM, endotoxin 10 ng/ml for 24 h (FIG. 12)

SMILES	TF activity [1]	efficacy in reducing TF activity compared with GroPIns [1]	TF activity (0.5 μM, 20 min pre-incubation, increasing concentrations of endotoxin for 24 h (FIG. 10))
O=P(O)(O)O[C@@H]1[C@@H](O)[C@@H](O)[C@@H](OP(=O)(O)OCC(O)CO)[C@H](O)[C@H]1OP(=O)(O)O (stereo partly drawn) [GroPIns4,5P2, glycerophosphoinositol 4,5-bisphosphate]	reduce TF activity	higher efficacy than GroPIns	
O=C1NC(=O)/C(=C/c2ccc(C(=O)NC[C@@H]3C[C@@H](SC(c4ccccc4)(c4ccccc4)c4ccccc4)CN3C(=O)c3ccccc3C(=O)c3ccc(F)cc3F)cc2)S1 [pyrrophenone, reference compound]			does not significantly inhibit endotoxin effect on tissue-factor activity
